Data set [1] is described as follows: 1H NMR stability in biologically relevant media. Type of data set: physicochemical. Conditions: buffers in D2O (1% DMSO-d6 for a and 1a), t = 0 and 30 min. How it is done: Acetate and HEPES buffers were prepared in D2O. […] Such solutions were further filtered through Minisart® Regenerated Cellulose Syringe Filter (25 mm, 0.2 µm).
The nature of data set [2]: in vitro. The conditions noted are these: human.
Data set [3] relates to SARS-CoV-2 viral isolate. The format is cell-based. Conditions: 30 µM.
The target of data set [4] is cathepsin L (Homo sapiens, UniProt P07711). Put plainly: biochemical. The format is biochemical.
Sequence of cathepsin L (P07711 114-333): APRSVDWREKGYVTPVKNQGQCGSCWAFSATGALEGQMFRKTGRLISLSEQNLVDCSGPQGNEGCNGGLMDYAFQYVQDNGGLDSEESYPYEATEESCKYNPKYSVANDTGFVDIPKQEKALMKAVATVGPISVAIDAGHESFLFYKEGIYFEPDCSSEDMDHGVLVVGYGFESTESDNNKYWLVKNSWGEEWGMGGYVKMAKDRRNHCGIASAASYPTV
Data set [5] relates to human lung tissue (HLT) cells.
Data set [6] has as its target SARS-CoV-2 PL^Pro (Severe acute respiratory syndrome coronavirus 2, UniProt P0DTD1). Briefly: biochemical. The format is biochemical.
Data set [7] is described as follows: UV–vis stability in biologically relevant media. The format is physicochemical. The conditions noted are these: 50 mM acetate buffer pH 5.5 (1% DMSO for a and 1a), 0 and 30 min. How it is done: The same buffers as for enzymatic assays were used for UV–vis stability testing (50 mM acetate buffer, pH = 5.5, and 50 mM HEPES buffer, pH = 7.4). Pyrithione a and zinc pyrithione 1a were dissolved in DMSO. Mixtures of a dissolved compound in DMSO (1%) and buffer (99%) were filtered through Minisart® Regenerated Cellulose Syringe Filter (25 mm, 0.2 µm). Ruthenium complex 2a was dissolved directly in buffers. After preparation, the spectra were immediately recorded on UV–vis spectrometer with an additional recording after 30 min.

Where [8] appears, read: 100 µM ligand, averages of three measurements.
Where [9] appears, read: pH 5.5, read-out: IC50 cathepsin L.

Entries after “also recorded” stand apart in the source; their conditions may differ. Like-named read-outs stand apart in the source and are kept apart here.

What is called viability is a per cent measure of how many cells are alive, often set against a control. The term IC50 denotes the concentration needed to halve the response being measured. In the case of `On1ccccc1=S` [a, 1-hydroxy-2(1H)-pyridinethione], in data set [1], the “1H NMR stability in acetate and HEPES buffers” value is recorded as “no structural changes”. Besides, in data set [2], the CC50 was > 100 µM and the viability is 51.9 to 55.5%. In addition, in data set [3], the “inhibition of SARS-CoV-2 replication” value is listed as “no effect; also recorded: did not inhibit”. Also, in data set [4], the IC50 is > 500000 nM and the “vi/v0 at 100 µM, Cathepsin L (relative reaction rate)” value is 1.09. Also, in data set [5], the cell survival is 72.91%. Further, in data set [6], the IC50 is > 500000 nM and the “vi/v0 at 100 µM, PLPro (relative reaction rate)” value is recorded as 0.88. Moreover, the “UV–vis stability in acetate buffer” value in data set [7] is given as “remain stable”.

Turning to `Cc1cccn(O)c1=S` [b], the “vi/v0 at 100 µM, Cathepsin L (relative reaction rate)” value in data set [4] (setting [8]) is given as 1.05. In addition, the “vi/v0 at 100 µM, PLPro (relative reaction rate)” value in data set [6] is listed as 0.50.

As for `Cc1ccn(O)c(=S)c1` [c], the “vi/v0 at 100 µM, Cathepsin L (relative reaction rate)” value in data set [4] (setting [8]) is recorded as 1.04. Also, in data set [6] (setting [8]), the “vi/v0 at 100 µM, PLPro (relative reaction rate)” value stood at 0.60.

On to `Cc1ccc(=S)n(O)c1` [d], for which the “vi/v0 at 100 µM, Cathepsin L (relative reaction rate)” value in data set [4] (setting [8]) worked out at 1.01. Further, the “vi/v0 at 100 µM, PLPro (relative reaction rate)” value in data set [6] is reported as 0.77.

Turning to `Cc1cccc(=S)n1O` [e], in data set [4] (setting [8]), the “vi/v0 at 100 µM, Cathepsin L (relative reaction rate)” value was determined as 1.15. Besides, the “vi/v0 at 100 µM, PLPro (relative reaction rate)” value in data set [6] is on record as 0.82.

For the compound `On1ccc2ccccc2c1=S` [f, N-hydroxyisoquinoline-1-thione], the “vi/v0 at 100 µM, Cathepsin L (relative reaction rate)” value in data set [4] (setting [8]) was determined as 0.65. In data set [6] (setting [8]), the “vi/v0 at 100 µM, PLPro (relative reaction rate)” value was found to be 0.66.

`On1c(=S)ccc2ccccc21` [g]: in data set [4] (setting [8]), the “vi/v0 at 100 µM, Cathepsin L (relative reaction rate)” value was determined as 0.53. The “vi/v0 at 100 µM, PLPro (relative reaction rate)” value in data set [6] (setting [8]) is 0.28.

In the case of `COc1cccn(O)c1=S` [h], in data set [4] (setting [8]), the “vi/v0 at 100 µM, Cathepsin L (relative reaction rate)” value came out at 1.17. The “vi/v0 at 100 µM, PLPro (relative reaction rate)” value in data set [6] (setting [8]) was found to be 0.60.

Regarding Zn-(4Me-pth) complex [1c], the IC50 in data set [4] (setting [9]) was 410 ± 80 nM; in data set [6] (pH 7.4, read-out: IC50 PL^Pro), 540 ± 250 nM.

Zn-(5Me-pth) complex [1d]: the IC50 was 440 ± 120 nM in data set [4] (setting [9]) and 220 ± 80 nM in data set [6] (pH 7.4, read-out: IC50 PL^Pro).

For the compound Zn-(6Me-pth) complex [1e], the IC50 in data set [4] (setting [9]) was 240 ± 50 nM; in data set [6] (pH 7.4, read-out: IC50 PL^Pro), 260 ± 180 nM.

For “Zn-(N-hydroxyisoquinoline-1-thione) complex [1f]”, the IC50 in data set [4] (50 mM acetate buffer pH 5.5, 2 µM Z-LR-AMC, 5 µM DTT, 25 °C, mean ± S.E.M. (N = 3), read-out: IC50 cathepsin L) amounted to 140 ± 50 nM. For the same compound, in data set [6], the “extent of PL^Pro inhibition (in words)” value was “cannot fully inhibit the enzyme”.
